Reference: patent US8435576B2, “Use of cocoa polyphenols for treating a prostate hyperplasia, a specific cocoa extract and applications” (Barry Callebaut AG, priority 2005, dated 2013)

Columns and labels:
Format in all cases: in vivo, Wistar rats
[1] = Body weight during 14-day oral treatment before heat stroke
Method: Eight male rats of Wistar/Han IGS strain (Charles River Laboratories, 69-St-Germain sur l'Arbresle—France) weighing 300 to 320 g are used. On receipt, the rats are housed, four to a cage, in 48×27×20 cm polycarbonate cages (U.A.R., 91-Epinay-Sur-Orge, France) in a controlled environment (50±5% humidity; temperature 22±1° C.; lighting from 20:00 h to 08:00 h, i.e. an inverted lightness/darkness cycle: 12 h/12 h).
The rats are weighed each day for the fourteen days of the treatment in order to determine their body weight change.

leukocyte free radicals = test: Free radicals in the blood after heat stroke (pholasine chemiluminescence); settings: after heat stroke 40° C., 120 min; 14 days oral CPE1 22.9, CPE2 24.3, vitamin E 200 mg/kg/day
Method: (§1) After each daily administration of the product, the rats have free access to standard food granules.
(§2) On the 16th day, after fasting over night, the conscious rats of the various groups, with the exception of those of the vehicle group, are exposed to a heat stroke by placing them in a temperature-controlled chamber at 40° C. with a relative humidity of 50% for 120 minutes. The rats expressed their normal heat-regulating behavior. Immediately after the heat stroke, the rats with a rectal temperature of between 41.5° C. and 42° C. are included in the study. The rats returned to their cage at 22° C.
On the 16th day, 500 μl of blood samples were collected from the tail vein of 12 rats of each group, into tubes containing heparin to check the increase in free radicals after exposure to the heat stroke. On the basis of the chemiluminescence of pholasine, a photo-protein from the marine mollusc Pholas dactylus, the production of leukocyte free radicals was measured using a kit (Knight Scientific, Cell Activation Test Kits for Whole Blood with Adjuvant-K) by activation of the NADPH oxydase complex in diluted blood (In CytoTox laboratory, Nancy, France).

[2] = tested on: cognitive performances after heat stroke; test: Light extinction test after heat stroke; settings: day 18, after heat stroke
Method: as §1, §2
Three days after exposure to the heat stroke, on day 18 (D18), the rats are tested for the preventive antioxidant effects of the two CPEs on the learning performances, by using the light extinction test. The experimental device consists of a brightly lit cage (50×40×37 cm). The level of lighting in the test cage is 1200 lux.
During the test session, the rats are placed individually in the cage for 20 minutes to learn how to control the light environment.

[3] = tested on: cognitive performances after heat stroke; test: Morris water labyrinth test after heat stroke
Method: as §1, §2
The Morris water labyrinth (1984) makes it possible to test the capacity for spatial orientation and the processes of learning and memorization. On the 20th and 21st days (D20 and D21), the rats are tested in the water labyrinth device to evaluate the spatial learning performances and their long-term memory. The experimental procedure consists in training rats, on the 20th day, to find a hidden platform (10 mm below the surface of the water) at a fixed point in the water tank (150 cm in diameter) in a series of five tests starting from the same starting point.
During the first test, the platform is placed against the wall of the tank. During the second test, the platform is placed 5 cm from the wall of the tank to allow the rats to find the platform easily. During the following three tests, the platform is placed 10 cm from the wall of the tank. Each test is followed by a 30-second rest period on the platform.
On the 21st day, the platform is placed at a distance from the wall of the tank in the same place as during the session on the 20th day and the long-term memory of the rats is tested in a single test.
The variable recorded in the water tank is the latency time required to get out of the water and reach the platform serving as a refuge arranged in the basin.

Cc1c(C)c2c(c(C)c1O)CC[C@@](C)(CCC[C@H](C)CCC[C@H](C)CCCC(C)C)O2 [Vitamin E, α-tocopherol]
Body weight ([1]; Day 1, oral daily CPE1 22.9, CPE2 24.3, vitamin E 200 mg/kg): 320.9 ± 15.4 g
Body weight ([1]; Day 3): 328.9 ± 15.8 g
Body weight ([1]; Day 4): 330.6 ± 15.7 g
Body weight ([1]; Day 5): 333.9 ± 16.5 g
Body weight ([1]; Day 6): 336.6 ± 15.9 g
Body weight ([1]; Day 7): 339.4 ± 17.3 g
Body weight ([1]; Day 8): 342.1 ± 17.2 g
Body weight ([1]; Day 11): 351.6 ± 18.0 g
Body weight ([1]; Day 12): 354.6 ± 18.8 g
Free radical content in the plasma on the 16th day (Mean ± SEM) (leukocyte free radicals): 311.15 ± 20.56 mV
Discrimination of the levers [2]: pressed the active lever more than the inactive lever
Number of active lever presses (ALP) (mean ± SEM) [2]: 27.28 ± 3.54
Number of inactive lever presses (ILP) (mean ± SEM) [2]: 17.60 ± 2.47
Total number of lever presses (Mean ± SEM) ([2]; n = 16/group): 42.38 ± 5.76
Latency for reaching the platform (Mean ± SEM) ([3]; Day 20, Test 1): 51.75 ± 6.45 s
Latency for reaching the platform (Mean ± SEM) ([3]; Day 20, Test 2): 25.38 ± 4.94 s
Latency for reaching the platform (Mean ± SEM) ([3]; Day 20, Test 3): 26.44 ± 5.20 s
Latency for reaching the platform (Mean ± SEM) ([3]; Day 20, Test 4): 17.75 ± 2.44 s
Latency for reaching the platform (Mean ± SEM) ([3]; Day 20, Test 5): 13.56 ± 1.37 s
Latency for reaching the platform (Mean ± SEM) ([3]; Day 21, Test 6): 14.69 ± 2.22 s
